We go through eight compounds from ChEMBL document CHEMBL1201862, “PubChem BioAssay data set” (2004).

Among the test systems are SNB-75; MOLT-4; SN12C; Hs-578T; UACC-257; HT-29; SW-620; CAKI-1; SF-539; SK-MEL-28; SR; CCRF-CEM; RXF 393; Malme-3M; 786-0; COLO 205; A549; HCT-15; UACC-62; A498.
Common to all, as to experiment: NCI-60 cell line screen, 48 h

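Protocol summary: plate cells (96-well), add compound at 5 concentrations, incubate 48 h, interpolate endpoints linearly. GI50 = concentration required for 50% inhibition of growth.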 The source made the active and inactive calls. Rule as the data show it: active = GI50 up to about 1.1 µM and inactive = higher. Bounds are passed on as bounds.

`CCOC(=O)c1cnc2oc(/C=N/N3CC(CN4CCOCC4)OC3=O)cc2c1O` (stereo not given): the GI50 in the test with SNB-75, in the test on MOLT-4, in the test with SN12C, in the test on Hs-578T, with UACC-257 and in the test with HT-29 was > 100 µM (inactive) each time. The GI50 with SW-620, with CAKI-1, in the test on SF-539, in the test on SK-MEL-28, in the test on SR and in the test with CCRF-CEM was > 100 µM (inactive) in each case. Moreover, the GI50 in the test with RXF 393 was > 100 µM (inactive); in the test on Malme-3M, > 100 µM (inactive); in the test on 786-0 it was > 100 µM (inactive); in the test on COLO 205 it was > 100 µM (inactive); with A549, > 100 µM (inactive); in the test with HCT-15, greater than 100 µM. In addition, the GI50 in the test with UACC-62 was > 100 µM (inactive).
Regarding `CC12O[C@]3([C@H](C(=O)N4CCOC43C)[C@H]1Cl)[C@H]1O[C@H]12` (stereo not given in full), the GI50 with SNB-75, in the test on MOLT-4, in the test on SN12C, in the test on Hs-578T, in the test with UACC-257 and in the test on HT-29 was > 100 µM (inactive) throughout. Besides, the GI50 with SW-620 is > 100 µM (inactive); with CAKI-1, > 100 µM (inactive); with SF-539, > 100 µM (inactive); in the test on SK-MEL-28, > 100 µM (inactive); with SR it was 51.4 µM (inactive); in the test with 786-0, > 100 µM (inactive). For the same compound, the GI50 was 24.6 µM (inactive) in the test on COLO 205; > 100 µM (inactive) with A549; greater than 100 µM with HCT-15; > 100 µM (inactive) with A498; > 100 µM (inactive) in the test on UACC-62.
As to `CCN(CC)CCC(=O)c1ccc(Oc2ccc(C)cc2)cc1`, the GI50 is 20.2 µM (inactive) in the test with SNB-75; 21.6 µM (inactive) in the test with MOLT-4; 16.7 µM (inactive) in the test with SN12C; 23.4 µM (inactive) with Hs-578T; 19.2 µM (inactive) in the test on UACC-257; 18.9 µM (inactive) in the test on HT-29. Moreover, the GI50 with SW-620 was 18.7 µM (inactive); with CAKI-1, 17.3 µM (inactive); with SF-539, 18.8 µM (inactive); with SK-MEL-28 it was 16.9 µM (inactive); in the test with SR, 26.2 µM (inactive); with CCRF-CEM it was 26.3 µM (inactive). Further, the GI50 is 16.4 µM (inactive) in the test on RXF 393; 17.5 µM (inactive) with Malme-3M; 16.5 µM (inactive) with 786-0; 23.4 µM (inactive) in the test with COLO 205; > 100 µM (inactive) in the test on A549; 18.7 µM in the test on HCT-15. Further, the GI50 in the test on UACC-62 is 17.3 µM (inactive).
Regarding `Cc1n[nH]c(=O)n1C1CC1`, the GI50 was 42.7 µM (inactive) with SNB-75; > 100 µM (inactive) in the test on MOLT-4; > 100 µM (inactive) with SN12C; > 100 µM (inactive) with Hs-578T; > 100 µM (inactive) in the test with UACC-257; > 100 µM (inactive) in the test on HT-29. In addition, the GI50 in the test with SW-620, in the test with CAKI-1, in the test on SF-539, in the test on SK-MEL-28, in the test with SR and in the test on CCRF-CEM was > 100 µM (inactive) each time. Also, the GI50 in the test with RXF 393 is > 100 µM (inactive); with Malme-3M, 64.1 µM (inactive); with 786-0, > 100 µM (inactive); with COLO 205, > 100 µM (inactive); in the test on A549, > 100 µM (inactive); in the test with HCT-15, greater than 100 µM. The GI50 with UACC-62 is > 100 µM (inactive).
`Cc1ccnc2c1ccc1nc3ccccc3n12`: the GI50 with SNB-75 was 31.7 µM (inactive); with MOLT-4, > 100 µM (inactive); in the test on SN12C, 61.5 µM (inactive); with Hs-578T, 25.8 µM (inactive); with UACC-257, > 100 µM (inactive); in the test with HT-29, 77.4 µM (inactive). Further, the GI50 was > 100 µM (inactive) in the test with SW-620; 11.4 µM (inactive) in the test on CAKI-1; 58.9 µM (inactive) in the test with SF-539; 44.7 µM (inactive) with SR; > 100 µM (inactive) in the test with CCRF-CEM; 56.2 µM (inactive) in the test on RXF 393. In addition, the GI50 in the test with 786-0 is 52.6 µM (inactive); with COLO 205, > 100 µM (inactive); in the test with A549 it was > 100 µM (inactive); in the test with A498 it was > 100 µM (inactive); in the test with UACC-62, > 100 µM (inactive).
With `CC1=NN(C(=O)CC(=O)Nc2cccc(Cl)c2)C(=O)C1/N=N\c1ccc(S(=O)(=O)c2ccc(/N=N/C3C(=O)N(C(=O)CC(=O)Nc4cccc(Cl)c4)N=C3C)cc2)cc1` (stereo not given), the GI50 in the test on SNB-75, in the test on MOLT-4, with SN12C, in the test with Hs-578T, with UACC-257 and in the test with HT-29 was > 100 µM (inactive) in each case. The GI50 was > 100 µM (inactive) in the test on SW-620; > 100 µM (inactive) in the test on CAKI-1; 22.6 µM (inactive) in the test on SF-539; > 100 µM (inactive) with SK-MEL-28; > 100 µM (inactive) in the test on SR; > 100 µM (inactive) with CCRF-CEM. Moreover, the GI50 is > 100 µM (inactive) with RXF 393; > 100 µM (inactive) in the test with Malme-3M; > 100 µM (inactive) in the test on 786-0; > 100 µM (inactive) in the test with COLO 205; > 100 µM (inactive) in the test on A549; greater than 100 µM in the test on HCT-15. Besides, the GI50 in the test on UACC-62 is > 100 µM (inactive).
For `C=C(C)[C@@H]1CC[C@]2(COC(C)=O)CC[C@]3(C)[C@H](CC[C@@H]4[C@@]5(C)CC[C@H](OC(C)=O)C(C)(C)[C@@H]5CC[C@]43C)[C@@H]12` [BETULIN DIACETATE], the GI50 in the test on SNB-75, in the test on MOLT-4, with SN12C, with Hs-578T, in the test with UACC-257 and with HT-29 was > 50 µM (inactive) throughout. For the same compound, the GI50 with SW-620 was > 50 µM (inactive); with SF-539, > 50 µM (inactive); in the test on SK-MEL-28 it was > 50 µM (inactive); in the test on SR it was > 50 µM (inactive); in the test on CCRF-CEM, > 50 µM (inactive); with RXF 393 it was 0.0385 µM (active). Besides, the GI50 with 786-0 was > 50 µM (inactive); with COLO 205, > 50 µM (inactive); with A549 it was > 50 µM (inactive); in the test with HCT-15 it was greater than 50 µM; in the test with A498 it was > 50 µM (inactive); in the test with UACC-62, > 50 µM (inactive).
With `CCOC(=O)c1c(NS(=O)(=O)c2ccccc2)sc2c1CCCC2`, the GI50 with SNB-75 is > 100 µM (inactive); with MOLT-4, 40.6 µM (inactive); in the test with SN12C, 66.7 µM (inactive); in the test on Hs-578T, 82.8 µM (inactive); with UACC-257 it was 81.7 µM (inactive); in the test on HT-29, 39.4 µM (inactive). Besides, the GI50 was > 100 µM (inactive) in the test with CAKI-1; > 100 µM (inactive) in the test with SF-539; 59.8 µM (inactive) in the test with SR; 25.5 µM (inactive) in the test with CCRF-CEM; > 100 µM (inactive) in the test on RXF 393; 80.5 µM (inactive) in the test on 786-0. Also, the GI50 is 44.4 µM (inactive) in the test with COLO 205; 47.9 µM (inactive) with A549; 33.7 µM in the test with HCT-15; 98.2 µM (inactive) with A498; 76 µM (inactive) in the test on UACC-62.
